Structures are written as SMILES.

Two compounds from patent publication US7196074B2, “Methods of making, using and pharmaceutical formulations comprising 7α, 11β-dimethyl-17β-hydroxyestra-4, 14-dien-3-one and 17 esters thereof” (The United States of America as represented by the …, priority 2000, dated 2007) can be followed below.

Assay [1] deals with ventral prostate weight. Briefly: Duration of androgenic activity after subcutaneous injection, ventral prostate weight over weeks in orchidectomized immature rats. Type of assay: in vivo, Sprague-Dawley rats. The conditions noted are these: for ventral prostate weight over time after single subcutaneous injection (in words): 0.6 mg in 0.2 ml aqueous vehicle; for AUC of ventral prostate weight, times greater than for testosterone enanthate in oily carrier: active in aqueous vehicle versus testosterone enanthate in sesame oil/oily carrier, single subcutaneous 0.6 mg. As to the method:
Immature (about 21-day-old) Sprague-Dawley rats were orchidectomized under anesthesia, and randomly assignee to groups of ten animals for each dose level of the active undergoing testing. Each active was administered by subcutaneous injection each day for seven days beginning on the date of the orchidectomy. The animals were sacrificed 24 hours after the last dose, and the ventral prostate and seminal vesicles were excised, cleaned of fat and connective tissue, blotted on moist filter paper and weighed to the nearest 0.1 mg. Regression analysis was performed by conventional methods using a PROPHET data management system. Ventral prostate weight was used as the endpoint because it is the sensitive organ to androgenic stimulation.
Except for testosterone enanthate, each active was formulated in two different carriers: (1) an aqueous suspension and (2) in sesame oil. Testosterone enanthate was formulated using the sesame oil carrier only, because it exists as a liquid at room temperature and could not therefore be formulated as an aqueous suspension.
The carrier used to provide the aqueous suspension was formulated as follows: 1 g benzyl alcohol, 0.5 g sodium carboxylethyl cellulose 50, 0.376 g disodium hydrogen phosphate dihydrate, 1.495 g sodium dihydrogen phosphate dihydrate, with water for injection (WFI) being added to bring volume of the carrier up to 100 ml.
Each formulation was prepared at a concentration of 0.6 mg/0.2 ml.
Immature (about 21-day-old) Sprague-Dawley rats were orchidectomized under anesthesia, and randomly assignee to groups of 40 or more. Animals received a single subcutaneous injection of 0.6 mg of each ester in 0.2 ml of an aqueous suspending carrier and/or oily carrier (10% ethanol/90% sesame oil or ethyl oleate) on the date of the orchidectomy. In cases where the ester was not solid at room temperature, 10% ethanol/sesame oil or ethyl oleate was used as the carrier. In this example, the carrier used to provide the aqueous suspension was formulated as follows: 1 g benzyl alcohol, 0.5 g sodium carboxylethyl cellulose 50, 0.376 g disodium hydrogen phosphate dihydrate, 1.495 g sodium dihydrogen phosphate dihydrate, with water for injection (WFI) being added to bring volume of the carrier up to 100 ml.
Five animals from each group were sacrificed at weekly or biweekly intervals, and the ventral prostate and seminal vesicles were excised, cleaned of fat and connective tissue, blotted on moist filter paper and weighed to the nearest 0.1 mg.
Ventral prostate weight was used as the endpoint because it is the sensitive organ to androgenic stimulation. Regression analysis was performed by conventional methods using the PROPHET data management system previously identified.
Immature (about 21-day-old) Sprague-Dawley rats were orchidectomized under anesthesia, and randomly assignee to groups of 40 or more. Animals received a single subcutaneous injection of 0.6 mg of the undecanoate in 0.2 ml of an aqueous suspending carrier and/or oily carrier (10% ethanol/90% sesame oil containing 5 mg/ml chlorobutanol as a preservative, or ethyloleate) on the date of the orchidectomy. The enanthate ester was formulated using the 10% ethanol/sesame oil or ethyloleate carrier as a first standard, with the 10% ethanol/sesame oil carrier used as a second standard.
In this example, the carrier used to provide the aqueous suspension was formulated as follows: 1 g benzyl alcohol, 0.5 g sodium carboxylethyl cellulose 50, 0.376 g disodium hydrogen phosphate dihydrate, 1.495 g sodium dihydrogen phosphate dihydrate, with water for injection (WFI) being added to bring volume of the carrier up to 100 ml.
Immature (about 21-day-old) Sprague-Dawley rats were orchidectomized under anesthesia, and randomly assignee to groups of 40 or more. […] The enanthate ester was formulated using the 10% ethanol/sesame oil or ethyloleate carrier as a first standard, with the 10% ethanol/sesame oil carrier used as a second standard.

Assay [2] concerns ventral prostate weight. Put plainly: Oral androgenic potency, ventral prostate weight assay in orchidectomized immature rats (gavage daily for seven days). Type of assay: in vivo, Sprague-Dawley rats. Conditions: ventral prostate weight; for oral androgenic activity, times as potent as methyltestosterone: gavage daily for 7 days in 10% ethanol/sesame oil (oily carrier). As to the method:
Immature (about 21-day-old) Sprague-Dawley rats were orchidectomized under anesthesia, and randomly assignee to groups of ten animals for each dose level of the active undergoing testing. Each active was dissolved in 10% ethanol/sesame oil and administered by gavage (oral) each day for seven days beginning on the date of the orchidectomy. The animals were sacrificed 24 hours after the last dose, and the ventral prostate and seminal vesicles were excised, cleaned of fat and connective tissue, blotted on moist filter paper and weighed to the nearest 0.1 mg. See, e.g., Hershberger, L. et al, Myotrophic Activity of 19-nortestosterone And Other Steroids Determined By Modified Levator And Muscle Method, Proc. Soc. Exptl. Biol. Med 83 175–180 (1953). Regression analysis was performed by conventional methods using a PROPHET data management system. See, e.g., Bliss, C., The Statistics of Bioassay (Academic Press, New York, 1952); Hollister, C., Nucleic Acids Res. 16 1873–75 (1988). Ventral prostate weight was used as the endpoint because it is the sensitive organ to androgenic stimulation.
Immature (about 21-day-old) Sprague-Dawley rats were orchidectomized under anesthesia, and randomly assignee to groups of ten animals for each dose level of the active undergoing testing. Each active was dissolved in 10% ethanol/sesame oil and administered by gavage (oral) or subcutaneous injection each day for seven days beginning on the date of the orchidectomy. The animals were sacrificed 24 hours after the last dose, and the ventral prostate and seminal vesicles were excised, cleaned of fat and connective tissue, blotted on moist filter paper and weighed to the nearest 0.1 mg. Regression analysis was performed by conventional methods using a PROPHET data management system. Ventral prostate weight was used as the endpoint because it is the sensitive organ to androgenic stimulation.
Immature (about 21-day-old) Sprague-Dawley rats were orchidectomized under anesthesia, and randomly assignee to groups of ten animals for each dose level of the active undergoing testing. Four dosage forms were prepared. The first two forms constituted a solution of each active in 10% ethanol/sesame oil. The third and fourth dosage forms constituted a suspension of each active in an aqueous carrier (as described in Example 2, supra). These dosage forms were then administered by gavage (oral) to separate animal groups each day for seven days beginning on the date of the orchidectomy. Each carrier was also administered (alone) to separate groups of animals as a control. The animals were sacrificed 24 hours after the last dose, and the ventral prostate and seminal vesicles were excised, cleaned of fat and connective tissue, blotted on moist filter paper and weighed to the nearest 0.1 mg. See, e.g., Hershberger, L. et al, Myotrophic Activity of 19-nortestosterone And Other Steroids Determined By Modified Levator And Muscle Method, Proc. Soc. Exptl. Biol. Med. 83 175–180 (1953). Regression analysis was performed by conventional methods using a PROPHET data management system. See, e.g., Bliss, C., The Statistics of Bioassay (Academic Press, New York, 1952); Hollister, C., Nucleic Acids Res. 16 1873–75 (1988). Ventral prostate weight was used as the endpoint because it is the sensitive organ to androgenic stimulation.
Immature (about 21 day old) Sprague male rats were orchidectomized under anesthesia, and randomly assignee to groups often animals for each dose level of the active undergoing testing. Animals were maintained under standard conditions of housing and had free access to food and water. Illumination was controlled for 14 hour periods of light and 10 hours of darkness. Each active was dissolved in 10% ethanol/sesame oil and administered by gavage (oral) each day for seven days beginning on the date of the orchidectomy. […]

Where [3] appears, read: gavage daily for 7 days in 10% ethanol/sesame oil.

For the compound `CCCC[C@H]1CC[C@H](C(=O)O[C@H]2CC[C@H]3[C@H]4[C@H]([C@@H](C)C[C@]23C)[C@H]2CCC(=O)C=C2C[C@H]4C)CC1` (relative stereo) [Compound I, 7α,11β-Dimethyl-17β-hydroxy-4-estren-3-one 17β-trans-4-n-butylcyclohexane carboxylate], in the assay with ventral prostate weight [1], the “ventral prostate weight over time after single subcutaneous injection (in words)” value was “most dramatic increase and maintenance of ventral prostate weight”; the “AUC of ventral prostate weight, times greater than for testosterone enanthate in oily carrier” value is “about 3 times”. Also, the “activity in potency and duration after subcutaneous injection (in words), FIG. 5” value in the assay on ventral prostate weight [1] (0.6 mg/0.2 ml, aqueous suspension or sesame oil, ventral prostate weight) is reported as “far exceeds the activity exhibited by the comparative esters”. In the assay with ventral prostate weight [1] (single subcutaneous 0.6 mg suspended in aqueous carrier, FIG. 9), the “AUC of ventral prostate weight over the 10-week period, rank among bucyclate esters” value is “greatest AUC”. Further, the “oral androgenic activity, times as potent as methyltestosterone” value in the assay on ventral prostate weight [2] is 3.77 times. Also, in the assay on ventral prostate weight [2] (setting [3]), the “oral androgenic activity, times as potent as testosterone bucyclate (1781 V-1)” value was “at least 4 times”; the “oral androgenic activity, times as potent as the free alcohol (1321 D)” value was “at least 4 times”; the “oral androgenic activity, times more potent than testosterone (111-C)” value is given as 10–100 times; the “oral androgenic activity, times more potent than testosterone enanthate (112a)” value is reported as 10–100 times.

Consider `CCCCCCCCCCC(=O)O[C@H]1CC[C@H]2[C@H]3[C@H]([C@@H](C)C[C@]12C)[C@H]1CCC(=O)C=C1C[C@H]3C` [Compound II, 7α,11β-dimethyl-17β-hydroxyestr-4-en-3-one 17-undecanoate], for which the “ventral prostate weight over time after single subcutaneous injection (in words)” value with ventral prostate weight [1] (listed as CDB-4521) is “most dramatic increases and maintenance of ventral prostate weight”. In addition, the “AUC of ventral prostate weight, times greater than for testosterone enanthate in oily carrier” value in the assay with ventral prostate weight [1] was “about 3 times”. Also, the “area under the curve (AUC, trapezoidal rule) of ventral prostate weight” value in the assay on ventral prostate weight [1] (single subcutaneous 0.6 mg in aqueous vehicle, 10 week period, FIG. 15) is given as 1817 mg-weeks. The “oral androgenic activity, times as potent as methyltestosterone” value with ventral prostate weight [2] is 2.36 times. Moreover, in the assay on ventral prostate weight [2] (gavage daily for 7 days, suspension in aqueous carrier), the “oral androgenic potency relative to methyltestosterone in the same aqueous carrier” value was found to be 0.95 times.
